Assay results taken from patent publication US11697648B2, “Fused pyrimidine pyridinone compounds as JAK inhibitors” (THERAVANCE BIOPHARMA R&D IP, LLC, priority 2019, dated 2023).

Tests used:
JAK1 = JAK1 (Homo sapiens (Human), UniProt P23458); test: Biochemical JAK1 kinase assay (LanthaScreen)
Procedure, shortened: (§1)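 GST-JAK + GFP-STAT1 peptide, HEPES pH 7.5/MgCl2/EGTA/Brij-35 buffer; cpd preincubation 1 h RT; ATP start, 1 h RT; stop with 10 mM EDTA + 2 nM Tb-anti-pSTAT1; TR-FRET 520/495. 4-parameter IC50 → pKi (Cheng-Prusoff).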

JAK2 = JAK2 (Homo sapiens (Human), UniProt O60674); test: Biochemical JAK2 kinase assay (LanthaScreen)
Procedure, shortened: as §1

JAK3 = JAK3 (Homo sapiens (Human), UniProt P52333); test: Biochemical JAK3 kinase assay (LanthaScreen)
Procedure, shortened: as §1

Tyk2 = Tyk2 (Homo sapiens (Human), UniProt P29597); test: Biochemical Tyk2 kinase assay (LanthaScreen)
Procedure, shortened: as §1

[1] = system: IL-2 stimulated STAT5 phosphorylation in Tall-1 human T cell line (JAK3); test: Cellular JAK3 potency assay: inhibition of IL-2 stimulated pSTAT5 in Tall-1 T cells; type: cell-based
Procedure, shortened: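 AlphaLISA SureFire Ultra measures STAT5 Tyr694/699 phosphorylation in lysed Tall-1 human T cells. Cells were exposed to compound for 1 h at 37 °C before a 30 min IL-2 challenge (300 ng/ml final). Values are pIC50 means with standard deviation from signal-versus-concentration curves.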

[2] = selectivity JAK3 over JAK1, difference of pKi
[3] = IL-2 stimulated pSTAT5, Tall-1 T cells

Chain of JAK3 (P52333 whole entry): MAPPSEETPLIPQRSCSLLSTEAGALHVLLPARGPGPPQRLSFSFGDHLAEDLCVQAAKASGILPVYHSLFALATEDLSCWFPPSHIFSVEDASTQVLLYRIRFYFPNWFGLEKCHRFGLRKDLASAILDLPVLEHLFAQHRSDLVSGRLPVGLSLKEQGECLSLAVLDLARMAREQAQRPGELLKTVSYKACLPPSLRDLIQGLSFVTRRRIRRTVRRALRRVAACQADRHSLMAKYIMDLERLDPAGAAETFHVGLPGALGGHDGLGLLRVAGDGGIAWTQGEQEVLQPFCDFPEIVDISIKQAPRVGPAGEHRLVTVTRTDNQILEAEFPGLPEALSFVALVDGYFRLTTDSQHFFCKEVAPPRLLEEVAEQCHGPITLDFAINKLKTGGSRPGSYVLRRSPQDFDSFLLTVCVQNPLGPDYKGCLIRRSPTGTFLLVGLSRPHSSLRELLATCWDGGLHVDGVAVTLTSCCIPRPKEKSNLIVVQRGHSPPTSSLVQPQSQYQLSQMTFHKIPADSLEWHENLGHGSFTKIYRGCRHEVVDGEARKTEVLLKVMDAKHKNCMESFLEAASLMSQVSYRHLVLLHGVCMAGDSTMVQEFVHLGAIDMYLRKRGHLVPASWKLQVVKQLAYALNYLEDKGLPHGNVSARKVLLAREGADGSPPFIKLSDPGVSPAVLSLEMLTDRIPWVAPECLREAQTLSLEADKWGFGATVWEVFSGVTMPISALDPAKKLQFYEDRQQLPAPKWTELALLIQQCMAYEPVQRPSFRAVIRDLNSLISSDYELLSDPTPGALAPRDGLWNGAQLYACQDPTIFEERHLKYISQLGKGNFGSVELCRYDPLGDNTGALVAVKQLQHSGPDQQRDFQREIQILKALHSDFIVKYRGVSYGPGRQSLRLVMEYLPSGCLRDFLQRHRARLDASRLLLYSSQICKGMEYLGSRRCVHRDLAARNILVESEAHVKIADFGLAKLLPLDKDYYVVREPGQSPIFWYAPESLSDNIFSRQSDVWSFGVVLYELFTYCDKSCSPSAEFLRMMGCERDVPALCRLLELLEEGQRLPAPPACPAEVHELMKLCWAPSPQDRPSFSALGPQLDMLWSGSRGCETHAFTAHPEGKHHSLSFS
Chain of JAK2 (O60674 whole entry): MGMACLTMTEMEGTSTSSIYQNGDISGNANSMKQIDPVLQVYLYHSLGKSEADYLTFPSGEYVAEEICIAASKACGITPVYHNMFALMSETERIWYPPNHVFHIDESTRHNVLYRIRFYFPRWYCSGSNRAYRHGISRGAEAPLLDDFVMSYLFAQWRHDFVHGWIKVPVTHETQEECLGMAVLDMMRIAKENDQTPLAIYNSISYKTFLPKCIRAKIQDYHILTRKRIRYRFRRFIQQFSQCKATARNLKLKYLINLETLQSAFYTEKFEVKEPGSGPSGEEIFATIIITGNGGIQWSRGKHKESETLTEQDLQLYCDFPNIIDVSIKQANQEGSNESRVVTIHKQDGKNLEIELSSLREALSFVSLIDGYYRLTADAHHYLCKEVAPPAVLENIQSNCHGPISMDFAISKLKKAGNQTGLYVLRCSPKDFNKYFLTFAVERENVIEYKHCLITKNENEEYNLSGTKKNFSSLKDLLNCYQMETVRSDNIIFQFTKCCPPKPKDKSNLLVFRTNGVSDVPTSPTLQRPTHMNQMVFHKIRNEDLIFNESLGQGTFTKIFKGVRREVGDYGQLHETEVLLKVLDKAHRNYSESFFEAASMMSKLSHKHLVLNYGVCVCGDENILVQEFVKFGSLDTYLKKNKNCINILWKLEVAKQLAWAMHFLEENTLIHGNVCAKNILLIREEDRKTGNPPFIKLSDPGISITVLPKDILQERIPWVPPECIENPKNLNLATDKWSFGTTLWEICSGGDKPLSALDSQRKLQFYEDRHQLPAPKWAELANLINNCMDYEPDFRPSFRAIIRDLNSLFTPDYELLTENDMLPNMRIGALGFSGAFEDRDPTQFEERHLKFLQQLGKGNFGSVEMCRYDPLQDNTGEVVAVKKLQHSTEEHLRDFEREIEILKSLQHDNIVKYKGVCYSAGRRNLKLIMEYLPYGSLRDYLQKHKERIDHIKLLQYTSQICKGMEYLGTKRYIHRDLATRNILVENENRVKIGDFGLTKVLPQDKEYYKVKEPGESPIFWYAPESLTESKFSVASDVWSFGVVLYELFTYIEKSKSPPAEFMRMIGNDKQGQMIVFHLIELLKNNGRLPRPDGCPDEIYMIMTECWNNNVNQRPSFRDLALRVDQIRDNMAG
Chain of Tyk2 (P29597 whole entry): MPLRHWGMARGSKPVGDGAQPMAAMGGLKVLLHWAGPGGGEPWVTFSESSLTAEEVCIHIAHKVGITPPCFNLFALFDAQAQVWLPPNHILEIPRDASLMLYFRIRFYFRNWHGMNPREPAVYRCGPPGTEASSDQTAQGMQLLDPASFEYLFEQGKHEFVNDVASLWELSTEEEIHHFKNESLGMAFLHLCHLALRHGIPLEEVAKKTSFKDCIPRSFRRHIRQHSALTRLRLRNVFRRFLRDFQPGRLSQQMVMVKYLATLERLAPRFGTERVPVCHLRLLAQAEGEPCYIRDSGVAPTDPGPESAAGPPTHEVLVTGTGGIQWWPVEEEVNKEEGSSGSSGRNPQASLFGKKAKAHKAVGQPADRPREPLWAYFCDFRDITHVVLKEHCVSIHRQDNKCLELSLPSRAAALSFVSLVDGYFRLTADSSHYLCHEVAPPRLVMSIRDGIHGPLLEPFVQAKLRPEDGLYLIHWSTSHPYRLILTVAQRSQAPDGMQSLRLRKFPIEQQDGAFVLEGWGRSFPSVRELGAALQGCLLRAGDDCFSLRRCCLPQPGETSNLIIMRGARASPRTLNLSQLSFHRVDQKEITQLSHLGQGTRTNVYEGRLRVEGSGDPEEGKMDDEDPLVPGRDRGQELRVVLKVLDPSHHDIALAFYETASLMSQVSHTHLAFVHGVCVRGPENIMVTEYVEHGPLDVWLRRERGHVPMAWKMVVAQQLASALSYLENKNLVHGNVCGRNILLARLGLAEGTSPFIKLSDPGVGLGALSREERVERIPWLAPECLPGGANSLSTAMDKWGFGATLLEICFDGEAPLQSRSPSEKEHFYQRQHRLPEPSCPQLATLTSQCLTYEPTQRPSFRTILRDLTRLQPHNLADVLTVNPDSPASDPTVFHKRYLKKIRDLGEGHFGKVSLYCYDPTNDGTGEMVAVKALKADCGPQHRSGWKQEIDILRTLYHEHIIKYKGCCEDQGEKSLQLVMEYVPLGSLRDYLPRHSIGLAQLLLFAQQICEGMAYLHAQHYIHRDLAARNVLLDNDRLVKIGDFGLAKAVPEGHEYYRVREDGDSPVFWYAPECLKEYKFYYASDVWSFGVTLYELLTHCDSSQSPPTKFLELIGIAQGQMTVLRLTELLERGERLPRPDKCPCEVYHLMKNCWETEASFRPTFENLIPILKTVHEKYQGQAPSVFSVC
Chain of JAK1 (P23458 whole entry): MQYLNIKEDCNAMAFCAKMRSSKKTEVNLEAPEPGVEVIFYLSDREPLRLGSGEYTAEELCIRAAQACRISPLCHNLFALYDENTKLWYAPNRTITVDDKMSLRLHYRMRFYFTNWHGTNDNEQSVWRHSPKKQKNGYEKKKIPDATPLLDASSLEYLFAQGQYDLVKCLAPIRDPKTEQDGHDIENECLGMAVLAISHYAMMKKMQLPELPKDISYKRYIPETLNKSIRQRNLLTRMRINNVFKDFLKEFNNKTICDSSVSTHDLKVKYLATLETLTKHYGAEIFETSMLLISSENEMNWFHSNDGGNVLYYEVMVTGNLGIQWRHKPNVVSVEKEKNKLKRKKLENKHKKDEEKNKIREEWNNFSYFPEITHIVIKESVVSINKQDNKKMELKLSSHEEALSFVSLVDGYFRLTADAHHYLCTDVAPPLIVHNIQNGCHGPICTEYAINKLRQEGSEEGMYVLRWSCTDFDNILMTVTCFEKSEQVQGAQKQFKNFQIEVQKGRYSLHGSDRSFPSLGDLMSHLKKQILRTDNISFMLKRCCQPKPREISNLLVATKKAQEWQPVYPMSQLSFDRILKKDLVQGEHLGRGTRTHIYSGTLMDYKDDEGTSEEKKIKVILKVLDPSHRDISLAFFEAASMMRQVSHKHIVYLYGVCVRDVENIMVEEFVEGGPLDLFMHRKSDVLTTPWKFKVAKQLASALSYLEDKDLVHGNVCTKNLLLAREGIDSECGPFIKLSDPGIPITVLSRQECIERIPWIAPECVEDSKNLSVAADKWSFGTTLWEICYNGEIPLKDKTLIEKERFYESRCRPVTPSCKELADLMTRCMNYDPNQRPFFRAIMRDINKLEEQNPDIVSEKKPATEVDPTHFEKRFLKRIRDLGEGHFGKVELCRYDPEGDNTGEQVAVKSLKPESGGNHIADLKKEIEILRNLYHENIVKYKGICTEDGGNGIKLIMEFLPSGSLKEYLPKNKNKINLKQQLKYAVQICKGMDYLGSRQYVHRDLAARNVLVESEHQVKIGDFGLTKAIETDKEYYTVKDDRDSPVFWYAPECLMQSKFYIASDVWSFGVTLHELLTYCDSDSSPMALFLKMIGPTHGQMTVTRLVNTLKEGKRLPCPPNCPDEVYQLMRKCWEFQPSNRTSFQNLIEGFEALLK

Structure (SMILES)	JAK 1 (pKi) (JAK1)	JAK 2 (pKi) (JAK2)	JAK 3 (pKi) (JAK3)	JAK3 (pKi)-JAK1 (pKi) (JAK3; [2])	Tyk 2 (pKi) (Tyk2)	Tall-1 (pIC50) [1, 3]	JAK3 (pKi)-JAK1 (pKi) (JAK3; selectivity, difference of pKi values)	Tall-1 (pIC50) ([1]; IL-2 stimulated pSTAT5 in Tall-1 T cells)
C=CC(=O)N1CC(CCn2c(=O)ccc3cnc(Nc4ccc(N5CCN(C(=O)CC(C)C)CC5)cc4)nc32)C1 [Example 103]	E (E represents a pKi value of 7 or below (Ki of 100 nM or above))	E (E represents a pKi value of 7 or below (Ki of 100 nM or above))	A (A represents a pKi value≥10 (Ki≤0.1 nM))	A (A represents a value of 3 or above)	E (E represents a pKi value of 7 or below (Ki of 100 nM or above))	A (A represents a pIC50 value≥7.5 (IC50≤32 nM))		
C=CC(=O)N1C[C@H](C)N(CCn2c(=O)ccc3cnc(Nc4cnn(C)c4)nc32)C[C@@H]1C [Example 121]	E (E represents a pKi value of 7 or below (Ki of 100 nM or above))	E (E represents a pKi value of 7 or below (Ki of 100 nM or above))	B (B represents pKi value between 9 and 10 (Ki between 1 nM and 0.1 nM))	B (B represents a value of 2.5 to 3)	E (E represents a pKi value of 7 or below (Ki of 100 nM or above))	C (C represents a pIC50 value between 6 and 6.7 (IC50 between 1 μM and 200 nM))		
C=CC(=O)N1CC(CCn2c(=O)ccc3cnc(Nc4ccc(N5CCN(C)C(C)(C)C5)cc4)nc32)C1 [Example 240]	E (E represents a pKi value of 7 or below (Ki of 100 nM or above))	E (E represents a pKi value of 7 or below (Ki of 100 nM or above))	A (A represents a pKi value≥10 (Ki≤0.1 nM))		E (E represents a pKi value of 7 or below (Ki of 100 nM or above))		A (A represents a value of 3 or above)	A (A represents a pIC50 value≥7.5 (IC50≤32 nM))
C=CC(=O)N1CC(CCn2c(=O)ccc3cnc(Nc4ccc(N5CCN(C(=O)C(C)C)CC5)cc4)nc32)C1 [Example 75]	E (E represents a pKi value of 7 or below (Ki of 100 nM or above))	E (E represents a pKi value of 7 or below (Ki of 100 nM or above))	C (C represents a pKi value between 8 and 9 (Ki between 10 nM and 1 nM))	B (B represents a value of 2.5 to 3)	E (E represents a pKi value of 7 or below (Ki of 100 nM or above))	C (C represents a pIC50 value between 6 and 6.7 (IC50 between 1 μM and 200 nM))		
C=CC(=O)N1CCN(CCn2c(=O)ccc3cnc(Nc4cnn(CCF)c4)nc32)[C@@H](C)C1 [Example 236]	E (E represents a pKi value of 7 or below (Ki of 100 nM or above))	E (E represents a pKi value of 7 or below (Ki of 100 nM or above))	B (B represents pKi value between 9 and 10 (Ki between 1 nM and 0.1 nM))	A (A represents a value of 3 or above)	E (E represents a pKi value of 7 or below (Ki of 100 nM or above))	B (B represents a pC50 value between 6.7 (included) and 7.5 (IC50 between 200 nM and 32 nM))		
C=CC(=O)N1CCN(CCn2c(=O)ccc3cnc(Nc4ccc(N5CCN(C(=O)CC(C)C)CC5)cc4)nc32)CC1 [Example 212]	E (E represents a pKi value of 7 or below (Ki of 100 nM or above))	E (E represents a pKi value of 7 or below (Ki of 100 nM or above))	A (A represents a pKi value≥10 (Ki≤0.1 nM))	A (A represents a value of 3 or above)	E (E represents a pKi value of 7 or below (Ki of 100 nM or above))	B (B represents a pC50 value between 6.7 (included) and 7.5 (IC50 between 200 nM and 32 nM))		
CN(C)C/C=C/C(=O)N1CC(CCn2c(=O)ccc3cnc(Nc4ccc(N5CCN(C)CC5)cn4)cc32)C1 [Example 11, (E)-1-(2-(1-(4-(dimethylamino)but-2-enoyl)azetidin-3-yl)ethyl)-7-((5-(4-methylpiperazin-1-yl)pyridin-2-yl)amino)-1,6-naphthyridin-2(1H)-one]	E (E represents a pKi value of 7 or below (Ki of 100 nM or above))	E (E represents a pKi value of 7 or below (Ki of 100 nM or above))	B (B represents pKi value between 9 and 10 (Ki between 1 nM and 0.1 nM))	A (A represents a value of 3 or above)	E (E represents a pKi value of 7 or below (Ki of 100 nM or above))	B (B represents a pC50 value between 6.7 (included) and 7.5 (IC50 between 200 nM and 32 nM))		
C=CC(=O)N1CC(CCn2c(=O)ccc3cnc(Nc4ccc(N5CCN(C(C)=O)CC5)c(Cl)c4)nc32)C1 [Example 182]	E (E represents a pKi value of 7 or below (Ki of 100 nM or above))	E (E represents a pKi value of 7 or below (Ki of 100 nM or above))	A (A represents a pKi value≥10 (Ki≤0.1 nM))	A (A represents a value of 3 or above)	E (E represents a pKi value of 7 or below (Ki of 100 nM or above))	B (B represents a pC50 value between 6.7 (included) and 7.5 (IC50 between 200 nM and 32 nM))		
